2 compounds from patent publication US20240425457A1, “COMPOSITIONS AND METHODS FOR SUPPRESSING AND/OR TREATING METABOLIC DISEASES AND/OR A CLINICAL CONDITION THEREOF” (CK Biotech Inc., priority 2018, published 2024) can be followed below.

The test system of one data set is HFD-induced obese mice. The data set can be described thus: HFD-induced obese mice, oral administration during 16 weeks of HFD. In kind it is in vivo. The note with it: HFD 16 weeks. As for the experimental part:
Anti-obesity effects of […], a small molecule […] inhibitor. Referring now to FIG. 34, C57BL/6N mice were fed HFD for 16 weeks with or without oral administration of 25 mpk […] or Orlistat. Orlistat is an anti-obesity drug that is thought to act by limiting the absorption of fats from the diet (e.g., a lipase inhibitor). […] Referring now to FIG. 35, The C57BL/6N mice were grown with HFD for 16 weeks with or without oral administration of 25 mpk of […], […], and I3O. […] The increase in adipocyte cell sizes and enhancement of inflammation (evaluated by crown like structures; blue; FIG. 35B) were suppressed by treatment with […] in the HFD mice.

A further data set concerns 3T3-L1 preadipocytes. The data set can be described thus: adipocyte differentiation of 3T3-L1 preadipocytes, Oil Red O staining. In kind it is cell-based. The procedure: Cell culture and adipocyte differentiation. 3T3-L1 cells were seeded in six-well plates at a density of 3×10^4 cells per well. The cells were grown in Dulbecco's modified Eagle medium (DMEM) with 10% bovine calf serum (Gibco) until confluent. After confluence, cells were induced to differentiate in DMEM containing 10% fetal bovine serum (FBS; Gibco) and MDI (520 μM methylisobutylxanthine (IBMX; Sigma-Aldrich), 1 μM dexamethasone (Sigma-Aldrich), and 167 nM insulin (Gibco)) with or without A3334. On day 4, the medium was replaced with DMEM containing 10% FBS and 167 nM insulin with or without A3334 and changed with fresh identical medium every 2 days up to day 14 post-induction. Cells were incubated at 37° C. in a 5% CO2 environment.
Oil Red O staining. […] For the quantification of lipid contents, the Oil Red O was eluted by the addition of 500 μl isopropanol containing 4% nonidet P-40 to each well and the absorbance was measured spectrophotometrically at 590 nm.
ORO staining. […] In the morning each well was washed thoroughly with water and images of the ORO staining were recorded with a Nikon bright-field optical microscope (Nikon TE-2000U, Tokyo, Japan) and quantified for further statistical analysis. For quantify lipid contents, the ORO was eluted by addition of 500 µl isopropanol containing 4% nonidet P-40 to each well and the absorbance was measured spectrophotometrically at 590 nm. […]

The next data set concerns normal (Chow) mice. The data set can be described thus: normal diet (NCD/Chow) fed mice treated with A3334. Format: in vivo. The source says:
No effect of A3334 on mice fed with normal diet. To evaluate whether the A3334 treatment would have any effect on normal diet fed mice, C57BL/6N mice were fed normal diet for 16 weeks with or without oral administration of 25 mpk A3334.

The nature of data set [1]: solubility of A3334 in oil or surfactants (LC/MS/MS). In kind it is physicochemical. As to conditions: 37 °C, thermodynamic from solid. The procedure:
To determine emulsion solution, solubility of A3334, for example, is measured in the several oil and surfactants. A3334 is mixed with oil or surfactants (1 ml) and vortexed for 30 min. The equilibrium state was reached by shaking for 72 hours at 37° C. with 50 rpm speed in an incubator, then centrifuged at 16,100×g for 5 min. The supernatant was diluted with methanol and analyzed by LC/MS/MS (see e.g., Table 7).
‘Waters xevo TQ MS-ACQUITY UPLC System’ is used as an analyses equipment. ACQUITY UPLC® BEH(C18, 1.7 μm, 2.1×50 mm) column was used for analyses at room temperature. Mobile phase is used after filtration of deionized distilled water including 0.1% formic acid and acetonitrile including 0.1% formic acid (30:70, v/v) with […] membrane filter. The flow rate is 0.25 ml/min and it is analyzed by injection of 0.5 μl sample. There are LC/MS/MS conditions for Decursin analysis; Cone 38 V, Collison 32 V. Precursor ion and daughter ion are monitored 329 and 229 m/z, respectively.

The next data set deals with db/db diabetes mice. The data set can be described thus: db/db diabetes mice. Format: in vivo. As to conditions: 1 and 2 weeks of treatment.
For data set [2], the system named is HFD-induced diabetes mice. The data set can be described thus: HFD-induced diabetes mice, A3334 versus rosiglitazone, one 5-day course. Format: in vivo. An excerpt: Referring now to FIG. 37A-37E, C57BL/6N mice were fed HFD for 8 weeks to induce diabetes. Then, the mice were maintained on HFD and treated with either 25 mpk A3334 or 25 mpk rosiglitazone (RSG) once per day for next 5 days. Then, the mice were maintained HFD condition without any drug treatments (e.g., A3334 or RSG) for the next several weeks. Rosiglitazone (RSG) is a diabetes drug in thiazolidinedione (TZD) class which works as an insulin sensitizer functioning via binding PPAR in fat cells.
Referring now to FIG. 45A-45F, C57BL/6N mice were induced diabetes by HFD for 8 weeks, and then treated with A3334 (25 mpk) or RSG (25 mpk) once per day for 5 days starting at week 8 under HFD condition. Animals were sacrificed at week 11.

Where [3] appears, read: 25 mpk, 5 days from week 8, sacrifice week 11.
[4] abbreviates: HFD 8 weeks, then 25 mpk once per day for 5 days.

Each structure is given as a SMILES string. Values after ≈ are worked out from the molar mass of the structure shown. “Also recorded” adds a separate entry of the source.

With `CO/N=C1/C(=C2/C(=O)Nc3cc(Cl)c(Cl)cc32)Nc2ccccc21` [Compound A3051, 5,6-dichloroindirubin-3′-methoxime], in the data set with HFD-induced obese mice (25 mpk oral), the “adipocyte cell size and inflammation (crown like structures)” value was “showed reduction in adipocyte size and anti-inflammatory effects, but those effects were lower when compared to that of the A3334 treatment”. Moreover, the “adipogenic differentiation of 3T3-L1 preadipocytes” value with 3T3-L1 preadipocytes is listed as “significant anti-differentiation effects”.
As to `COc1ccc2c(c1)/C(=C1/Nc3ccccc3/C1=N\O)C(=O)N2` [Compound A3334, 5-Methoxyindirubin-3′-oxime], in the data set with HFD-induced obese mice (25 mpk oral), the “HFD-induced body weight gain and abdominal obesity” value is “not observed in the HFD mice treated with A3334”; the “adipocyte cell size and inflammation (crown like structures)” value is reported as “suppressed by treatment with A3334”; the “fatty liver and white adipocyte tissue” value was “suppression of fatty liver and white adipocyte tissue”; the “glucose tolerance (GTT) and insulin tolerance (ITT)” value was “significantly improved by the A3334 treatment”. Further, the “triglyceride, total cholesterol, HDL-cholesterol” value in the data set on HFD-induced obese mice (25 mpk oral) is “significantly reduced the level of triglyceride and total cholesterol and increased the level of HDL-cholesterol”. Also, in the data set on HFD-induced obese mice (both 25 mpk), the “inhibitory effect on weight gain compared with orlistat” value was “much more significant than the effects observed in the HFD mice treated with orlistat”. Also, in the data set with normal (Chow) mice (25 mg/kg/d p.o.), the “effect on normal diet fed mice (fat size, organ weight, ALT and AST)” value was “has no effect in NCD mice; also recorded: did not have any effect on normal (Chow) mice; also recorded: no observation of metabolic disease phenotypes; also recorded: did not show any differences on size of fats (FIG. 36A-36B), weight of organs (FIG. 36D), and level of ALT and AST in blood serum”. In the data set with normal (Chow) mice (25 mpk p.o.), the “histology of normal diet fed mice” value is recorded as “no histological differences were observed”. Also, in data set [1] (oil or lipid, Oil: Olive oil), the concentration in solution (solubility at 72 h) was 0.83 mg/mL (≈ 2.7 mM). In data set [1] (oil or lipid, Oil: Sunflower oil), the solubility at 72 h is 1.35 mg/mL (≈ 4.39 mM). For the same compound, in data set [1] (organic solvent or mixture, Co-Surfactant: Propylene glycol), the solubility at 72 h was determined as 0.25 mg/mL (≈ 0.814 mM). For the same compound, the solubility at 72 h in data set [1] (organic solvent or mixture, Co-Surfactant: Transcutor P) worked out at 1.15 mg/mL (≈ 3.74 mM). In data set [1] (KOLLIPHOR EL (listed as oil), aqueous with cosolvent or surfactant or cyclodextrin, Oil: KOLLIPHOR EL), this compound yielded a solubility at 72 h of 5.4 mg/mL (≈ 17.6 mM). Moreover, in data set [1] (PEG 400 (co-surfactant), organic solvent or mixture, Co-Surfactant: PEG 400), the solubility at 72 h turned out to be 3.1 mg/mL (≈ 10.1 mM). In data set [1] (Tween 20 (surfactant), aqueous with cosolvent or surfactant or cyclodextrin, Surfactants: Tween 20), this compound returned a solubility at 72 h of 4.58 mg/mL (≈ 14.9 mM). In data set [1] (Tween 80 (surfactant), aqueous with cosolvent or surfactant or cyclodextrin, Surfactants: Tween 80), this compound registered a solubility at 72 h of 4.92 mg/mL (≈ 16 mM). Further, the fasting glucose level entry in the data set on db/db diabetes mice is “reduces fasting glucose levels”. In addition, in the data set with 3T3-L1 preadipocytes, the “adipogenic differentiation of 3T3-L1 preadipocytes” value is given as “efficiently inhibited the adipogenic differentiation of 3T3-L1 preadipocytes; also recorded: significant anti-differentiation effects”. In data set [2] (setting [3]), the liver steatosis result is “suppressed by A3334”; the “mRNA levels of lipogenesis markers in liver” value is “suppressed by A3334”; the “serum insulin and total cholesterol levels” value was “abolished by A3334”. For the same compound, in data set [2] (setting [4]), the “ALT and AST in blood serum” value is recorded as “not evident”; the “GTT and ITT” value is “significant reduction of both GTT and ITT”; the body weight gain result was “suppressed the body weight gain induced by HFD”; the “fasting glucose level after termination of drug treatment” value is on record as “maintained at low level for several weeks”. In addition, the “CXXC5, β-catenin, crown like structures, PPARγ and macrophage markers” value in data set [2] (HFD 8 weeks, then 25 mpk once per day for 5 days, immunostaining) is “suppressed overexpression of CXXC5, increased expressions of β-catenin, suppressed formation of crown like structures (CRC), and suppressed the expression of PPARγ and macrophage markers”. In data set [2] (white adipose tissue, 25 mpk), the “PPARγ mRNA level” value is “not increased by A3334”; the “mRNA of M1 and M2 macrophage markers” value was “decreased and increased by A3334, respectively”; the “mRNA of Wnt/β-catenin signaling target genes (Dvl1, Wisp1, Fosl1)” value was “increased by A3334”.
